The values below come from article PMC8115619, “Generation of a chemical genetic model for JAK3” (Scientific Reports, 2021).

One assay addresses FGF-R1 (Homo sapiens, UniProt P11362). Put plainly: Selectivity screen FGF-R1. The following applies: 1 µM inhibitor, mean. It is filed as biochemical. How it is done: (§1) For the in vitro kinase assay, JAK3 (5–20 mU diluted in 50 mM Tris pH 7.5, 0.1 mM EGTA, 0.05% β-mercaptoethanol, 1 mg/ml BSA) was assayed against PDKtide ([…]) in a final volume of 25.5 µl containing 50 mM Tris pH 7.5, 0.1 mM EGTA, 0.05% β-mercaptoethanol, 100 µM substrate peptide, 10 mM magnesium acetate and 0.02 mM [33P-γ-ATP] (50–1000 cpm/pmole) and incubated for 30 min at room temperature. Assays were started by the addition of the ATP and stopped by addition of 5 µl of 0.5 M (3%) orthophosphoric acid and then harvested onto P81 Unifilter plates with a wash buffer of 50 mM orthophosphoric acid. To determine the Km for ATP, assays were run using 1, 5, 10, 20, 50, 100, 200, 400, 500 μM ATP and Km derived by non-linear regression fitting to the Michaelis–Menten equation v = Vmax[S]/(Km + [S]). IC50 values for inhibitors via non-linear regression using a parameter model: Y = Bottom + (Top–Bottom)/(1 + (IC50/X)^HillSlope). Non-linear regression was carried out in Prism (version 8). In vitro selectivity screen was carried out as described previously.

Another assay concerns the target CK1γ2 (Homo sapiens, UniProt P78368). Put plainly: Selectivity screen CK1γ2. The assay is classed as biochemical. The following applies: 1 µM inhibitor, mean. How it is done:
as §1

The target in another assay is HIPK3 (Homo sapiens, UniProt Q9H422). The experiment in a line: Selectivity screen HIPK3. It is filed as biochemical. The settings on record: 1 µM inhibitor, mean. On the procedure:
as §1

The target in the next assay is IGF-1R (Homo sapiens, UniProt P08069). The experiment in a line: Selectivity screen IGF-1R. It is filed as biochemical. The settings on record: 1 µM inhibitor, mean. How it is done:
as §1

The target in a further assay is CHK2 (Homo sapiens, UniProt O96017). The experiment in a line: Selectivity screen CHK2. It is filed as biochemical. The following applies: 1 µM inhibitor, mean. How it is done: as §1
The target of the next assay is PRAK (Homo sapiens, UniProt Q8IW41). Put plainly: Selectivity screen PRAK. It is filed as biochemical. The following applies: 1 µM inhibitor, mean. On the procedure: as §1
Another assay has as its target MST3 (Homo sapiens, UniProt Q9Y6E0). The experiment in a line: Selectivity screen MST3. It is filed as biochemical. The settings on record: 1 µM inhibitor, mean. On the procedure:
as §1

The target of another assay is PINK (Tribolium castaneum, UniProt D6WMX4). Put plainly: Selectivity screen PINK. The settings on record: 1 µM inhibitor, mean. It is filed as biochemical. How it is done: as §1
Another assay has as its system panel of 139 kinases. The experiment in a line: In vitro selectivity screen, whole panel. The assay is classed as biochemical. The settings on record: 1 μM, panel of 139 kinases in vitro. On the procedure:
as §1

The target in a further assay is TTBK2 (Homo sapiens, UniProt Q6IQ55). The experiment in a line: Selectivity screen TTBK2. The assay is classed as biochemical. The settings on record: 1 µM inhibitor, mean. How it is done:
as §1

In the next assay the target is ERK1 (Homo sapiens, UniProt P27361). Put plainly: Selectivity screen ERK1. The settings on record: 1 µM inhibitor, mean. It is filed as biochemical. On the procedure:
as §1

In another assay the target is MKK2 (Homo sapiens, UniProt P36507). Put plainly: Selectivity screen MKK2. The assay is classed as biochemical. The settings on record: 1 µM inhibitor, mean. How it is done: as §1
Another assay deals with MNK2 (Homo sapiens, UniProt Q9HBH9). The experiment in a line: Selectivity screen MNK2. The assay is classed as biochemical. The settings on record: 1 µM inhibitor, mean. On the procedure:
as §1

Another assay has as its target MST4 (Homo sapiens, UniProt Q9P289). Put plainly: Selectivity screen MST4. It is filed as biochemical. The settings on record: 1 µM inhibitor, mean. How it is done:
as §1

The target of the next assay is MARK1 (Homo sapiens, UniProt Q9P0L2). Put plainly: Selectivity screen MARK1. The assay is classed as biochemical. The settings on record: 1 µM inhibitor, mean. On the procedure: as §1
The next assay deals with TBK1 (Homo sapiens, UniProt Q9UHD2). Put plainly: Selectivity screen TBK1. It is filed as biochemical. The settings on record: 1 µM inhibitor, mean. How it is done:
as §1

The target of the next assay is PIM1 (Homo sapiens, UniProt P11309). Put plainly: Selectivity screen PIM1. The following applies: 1 µM inhibitor, mean. The assay is classed as biochemical. On the procedure: as §1
In a further assay the target is ERK8 (Homo sapiens, UniProt Q8TD08). Put plainly: Selectivity screen ERK8. It is filed as biochemical. The settings on record: 1 µM inhibitor, mean. How it is done: as §1
In a further assay the target is BRSK2 (Homo sapiens, UniProt Q8IWQ3). The experiment in a line: Selectivity screen BRSK2. The assay is classed as biochemical. The settings on record: 1 µM inhibitor, mean. How it is done: as §1
Another assay has as its target EPH-B3 (Homo sapiens, UniProt P54753). Put plainly: Selectivity screen EPH-B3. It is filed as biochemical. The following applies: 1 µM inhibitor, mean. How it is done:
as §1

A further assay deals with TAO1 (Homo sapiens, UniProt Q7L7X3). Put plainly: Selectivity screen TAO1. It is filed as biochemical. The settings on record: 1 µM inhibitor, mean. On the procedure: as §1
A further assay deals with PDK1 (Homo sapiens, UniProt O15530). Put plainly: Selectivity screen PDK1. The assay is classed as biochemical. The settings on record: 1 µM inhibitor, mean. On the procedure: as §1
Assay [1] relates to IFNβ induced STAT1 phosphorylation in BMDMs. Put plainly: IFNβ induced STAT1 phosphorylation in macrophages. The assay is classed as cell-based, mouse. The following applies: wild type BMDMs, 10 μM inhibitor 2 h, 10 ng/ml IFNβ. How it is done:
(A) BMDMs were isolated from wild type mice. Cells were incubated with the indicated inhibitors in μM for 2 h before stimulation with 10 ng/ml IL-4 for 30 min. The levels of phosphorylated STAT6 were then determined by immunoblotting. (B) As (A) except cells were stimulated 10 ng/ml GM-CSF and the levels of phosphorylated STAT5 determined. (C) As (A) except cells were stimulated 10 ng/ml IL-10 and the levels of phosphorylated STAT3 determined. (D) As (A) except cells were stimulated 10 ng/ml IFNβ and the levels of phosphorylated STAT1 determined. For A–D, levels of ERK1/2 were determined as a loading control.
Bone marrow derived macrophages (BMDMs) were cultured as described. Briefly, bone marrow was flushed in PBS from the femurs and tibias of mice. […]
Cells were lysed directly into SDS sample buffer and aliquots run on 10% polyacrylamide gels using standard methods. Proteins were transferred onto nitrocellulose membranes, and specific proteins were detected by immunoblotting. […] Bands were detected using Clarity ECL reagents from BioRad and imaged on a Licor Odyssey Fc system. Quantification was carried out using Licor Image Studio software. After correction for the ERK1/2 levels to account for loading differences, percentage inhibition was calculated relative to the IL-4 stimulated condition. IC50 values were calculated using the same methods as for the in vitro IC50 values.

FGF-R1, sequence (P11362 22-822): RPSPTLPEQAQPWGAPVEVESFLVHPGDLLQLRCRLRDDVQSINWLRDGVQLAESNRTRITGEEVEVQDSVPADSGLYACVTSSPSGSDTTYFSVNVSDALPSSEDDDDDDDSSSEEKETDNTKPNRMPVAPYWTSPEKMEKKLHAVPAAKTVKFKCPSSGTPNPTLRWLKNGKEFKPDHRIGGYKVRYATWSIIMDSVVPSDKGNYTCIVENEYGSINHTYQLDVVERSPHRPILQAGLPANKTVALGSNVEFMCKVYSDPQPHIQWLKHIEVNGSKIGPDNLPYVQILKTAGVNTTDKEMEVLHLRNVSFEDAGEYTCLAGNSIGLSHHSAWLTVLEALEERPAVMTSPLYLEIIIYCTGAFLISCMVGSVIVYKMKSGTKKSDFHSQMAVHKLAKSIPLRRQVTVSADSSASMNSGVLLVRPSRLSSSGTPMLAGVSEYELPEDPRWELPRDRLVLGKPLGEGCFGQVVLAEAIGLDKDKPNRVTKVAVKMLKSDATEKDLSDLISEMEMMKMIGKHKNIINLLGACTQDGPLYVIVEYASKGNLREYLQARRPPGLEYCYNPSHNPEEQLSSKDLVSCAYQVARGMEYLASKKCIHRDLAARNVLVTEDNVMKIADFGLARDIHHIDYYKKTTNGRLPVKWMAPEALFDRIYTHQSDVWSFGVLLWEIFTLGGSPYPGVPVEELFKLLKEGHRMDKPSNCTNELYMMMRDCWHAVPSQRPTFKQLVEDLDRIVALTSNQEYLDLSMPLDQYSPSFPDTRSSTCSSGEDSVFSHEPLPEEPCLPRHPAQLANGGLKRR
PIM1, sequence (P11309 whole entry): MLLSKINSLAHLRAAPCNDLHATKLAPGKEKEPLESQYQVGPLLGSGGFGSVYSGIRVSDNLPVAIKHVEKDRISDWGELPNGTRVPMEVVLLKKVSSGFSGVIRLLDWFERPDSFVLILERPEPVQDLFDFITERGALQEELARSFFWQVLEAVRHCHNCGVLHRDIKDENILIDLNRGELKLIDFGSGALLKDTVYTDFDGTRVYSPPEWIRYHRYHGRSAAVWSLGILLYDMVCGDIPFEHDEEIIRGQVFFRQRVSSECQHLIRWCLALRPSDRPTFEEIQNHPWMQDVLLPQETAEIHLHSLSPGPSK
ERK8, sequence (Q8TD08 whole entry): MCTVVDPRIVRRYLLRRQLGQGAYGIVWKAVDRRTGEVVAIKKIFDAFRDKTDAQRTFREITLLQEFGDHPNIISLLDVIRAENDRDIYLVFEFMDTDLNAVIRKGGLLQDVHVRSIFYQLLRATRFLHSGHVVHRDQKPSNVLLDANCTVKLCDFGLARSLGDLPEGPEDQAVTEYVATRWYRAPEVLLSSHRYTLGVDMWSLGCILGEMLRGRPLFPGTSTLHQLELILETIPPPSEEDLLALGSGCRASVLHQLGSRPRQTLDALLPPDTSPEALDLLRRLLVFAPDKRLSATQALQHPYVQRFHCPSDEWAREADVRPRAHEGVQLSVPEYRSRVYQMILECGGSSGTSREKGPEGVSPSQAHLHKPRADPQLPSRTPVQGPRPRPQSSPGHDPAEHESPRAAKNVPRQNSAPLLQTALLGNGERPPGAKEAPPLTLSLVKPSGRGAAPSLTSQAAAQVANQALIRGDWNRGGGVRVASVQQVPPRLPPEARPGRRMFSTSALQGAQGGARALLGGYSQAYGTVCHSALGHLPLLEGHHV
PDK1, sequence (O15530 whole entry): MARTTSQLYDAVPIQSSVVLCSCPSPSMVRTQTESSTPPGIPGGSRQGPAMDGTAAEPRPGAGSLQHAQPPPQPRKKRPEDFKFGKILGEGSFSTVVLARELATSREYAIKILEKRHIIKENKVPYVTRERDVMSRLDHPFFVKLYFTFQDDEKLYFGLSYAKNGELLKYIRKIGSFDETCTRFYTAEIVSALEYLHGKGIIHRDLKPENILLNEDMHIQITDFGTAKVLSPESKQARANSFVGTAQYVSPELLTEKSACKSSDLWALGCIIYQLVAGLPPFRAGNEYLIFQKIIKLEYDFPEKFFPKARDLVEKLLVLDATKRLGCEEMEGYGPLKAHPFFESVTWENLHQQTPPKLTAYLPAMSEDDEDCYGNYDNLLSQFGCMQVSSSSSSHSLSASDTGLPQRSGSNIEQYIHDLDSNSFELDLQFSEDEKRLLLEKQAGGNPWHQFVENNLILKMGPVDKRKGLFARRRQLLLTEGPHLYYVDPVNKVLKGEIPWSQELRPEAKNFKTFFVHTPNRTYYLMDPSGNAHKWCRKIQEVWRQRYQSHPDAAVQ
EPH-B3, sequence (P54753 34-998): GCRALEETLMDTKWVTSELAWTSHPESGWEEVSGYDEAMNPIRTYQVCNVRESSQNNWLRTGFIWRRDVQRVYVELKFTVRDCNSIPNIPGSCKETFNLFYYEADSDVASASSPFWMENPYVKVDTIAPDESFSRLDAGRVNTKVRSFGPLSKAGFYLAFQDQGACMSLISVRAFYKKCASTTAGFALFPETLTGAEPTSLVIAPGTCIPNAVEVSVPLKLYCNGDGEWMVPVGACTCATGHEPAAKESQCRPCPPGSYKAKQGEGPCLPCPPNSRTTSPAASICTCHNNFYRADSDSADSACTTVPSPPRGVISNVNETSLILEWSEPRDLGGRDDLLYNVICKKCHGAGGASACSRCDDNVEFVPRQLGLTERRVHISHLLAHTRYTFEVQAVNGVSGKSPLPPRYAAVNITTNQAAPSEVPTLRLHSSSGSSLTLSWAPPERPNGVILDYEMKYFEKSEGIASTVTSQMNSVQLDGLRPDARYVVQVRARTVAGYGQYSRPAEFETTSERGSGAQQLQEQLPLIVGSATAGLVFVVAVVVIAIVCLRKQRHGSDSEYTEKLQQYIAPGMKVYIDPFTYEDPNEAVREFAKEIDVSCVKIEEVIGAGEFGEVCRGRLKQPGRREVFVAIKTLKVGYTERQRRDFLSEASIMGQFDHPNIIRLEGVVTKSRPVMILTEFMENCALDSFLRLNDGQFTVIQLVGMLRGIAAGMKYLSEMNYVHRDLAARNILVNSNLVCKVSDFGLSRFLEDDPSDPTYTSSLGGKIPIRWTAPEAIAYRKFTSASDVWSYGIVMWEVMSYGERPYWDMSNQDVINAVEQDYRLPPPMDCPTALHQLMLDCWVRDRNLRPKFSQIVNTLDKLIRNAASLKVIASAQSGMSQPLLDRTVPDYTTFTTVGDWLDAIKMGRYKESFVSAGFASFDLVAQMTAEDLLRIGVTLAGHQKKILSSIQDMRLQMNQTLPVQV
IGF-1R, sequence (P08069 31-1367): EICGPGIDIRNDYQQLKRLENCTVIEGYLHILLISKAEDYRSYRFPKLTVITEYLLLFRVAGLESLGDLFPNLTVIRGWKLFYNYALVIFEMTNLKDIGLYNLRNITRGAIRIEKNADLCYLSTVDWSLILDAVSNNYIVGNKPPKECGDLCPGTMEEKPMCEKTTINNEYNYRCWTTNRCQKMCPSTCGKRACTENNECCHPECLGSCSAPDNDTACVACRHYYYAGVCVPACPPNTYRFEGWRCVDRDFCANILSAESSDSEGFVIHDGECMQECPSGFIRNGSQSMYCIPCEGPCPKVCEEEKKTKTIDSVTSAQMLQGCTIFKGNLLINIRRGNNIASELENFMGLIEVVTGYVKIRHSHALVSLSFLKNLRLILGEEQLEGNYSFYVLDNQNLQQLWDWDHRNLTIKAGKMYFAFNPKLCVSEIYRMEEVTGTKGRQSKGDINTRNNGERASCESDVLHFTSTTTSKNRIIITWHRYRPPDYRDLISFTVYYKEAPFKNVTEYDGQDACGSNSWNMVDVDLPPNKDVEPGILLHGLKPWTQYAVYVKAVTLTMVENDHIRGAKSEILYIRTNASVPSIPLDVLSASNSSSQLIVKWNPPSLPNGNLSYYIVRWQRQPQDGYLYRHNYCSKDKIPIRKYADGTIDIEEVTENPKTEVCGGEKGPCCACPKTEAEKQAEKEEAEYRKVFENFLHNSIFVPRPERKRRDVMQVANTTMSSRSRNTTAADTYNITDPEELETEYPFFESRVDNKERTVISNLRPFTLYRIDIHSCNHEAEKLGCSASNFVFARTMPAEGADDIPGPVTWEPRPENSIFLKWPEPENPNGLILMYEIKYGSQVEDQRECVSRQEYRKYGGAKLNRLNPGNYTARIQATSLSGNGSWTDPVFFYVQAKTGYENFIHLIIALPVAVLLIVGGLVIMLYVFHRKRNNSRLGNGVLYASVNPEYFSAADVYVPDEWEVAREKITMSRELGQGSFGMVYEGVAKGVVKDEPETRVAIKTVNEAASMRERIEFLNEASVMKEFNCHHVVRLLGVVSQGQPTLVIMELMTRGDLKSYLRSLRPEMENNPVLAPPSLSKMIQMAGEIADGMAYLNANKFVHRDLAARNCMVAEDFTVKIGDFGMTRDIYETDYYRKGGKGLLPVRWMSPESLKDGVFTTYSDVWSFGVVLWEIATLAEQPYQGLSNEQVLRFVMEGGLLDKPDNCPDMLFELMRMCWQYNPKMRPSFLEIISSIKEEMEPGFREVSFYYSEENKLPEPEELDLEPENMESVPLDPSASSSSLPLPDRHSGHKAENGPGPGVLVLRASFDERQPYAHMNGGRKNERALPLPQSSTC
MST3, sequence (Q9Y6E0 whole entry): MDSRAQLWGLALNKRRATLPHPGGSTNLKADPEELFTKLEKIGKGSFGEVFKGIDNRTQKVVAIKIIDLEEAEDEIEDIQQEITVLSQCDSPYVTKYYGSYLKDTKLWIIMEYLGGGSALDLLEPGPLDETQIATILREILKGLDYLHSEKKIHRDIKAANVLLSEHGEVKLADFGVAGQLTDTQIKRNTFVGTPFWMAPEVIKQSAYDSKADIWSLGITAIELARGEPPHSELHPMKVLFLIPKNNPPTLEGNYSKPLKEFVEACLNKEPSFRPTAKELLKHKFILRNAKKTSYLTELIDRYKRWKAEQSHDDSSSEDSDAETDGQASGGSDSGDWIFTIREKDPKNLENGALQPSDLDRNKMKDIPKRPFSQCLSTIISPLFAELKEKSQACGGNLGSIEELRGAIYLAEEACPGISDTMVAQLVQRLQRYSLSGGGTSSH

For the molecule `C=CC(=O)Nc1cccc(CNc2nc(Nc3ccc(N4CCN(C)CC4)cc3OC)ncc2Cl)c1` [TL6-144], at FGF-R1, the “activity remaining in the presence of the inhibitor: FGF-R1” value is recorded as 44. Moreover, the “activity remaining in the presence of the inhibitor: CK1γ2” value at CK1γ2 is listed as 82. Moreover, the “activity remaining in the presence of the inhibitor: HIPK3” value on HIPK3 is given as 91. The “activity remaining in the presence of the inhibitor: IGF-1R” value on IGF-1R came out at 5. Besides, the “activity remaining in the presence of the inhibitor: CHK2” value at CHK2 turned out to be 38. The “activity remaining in the presence of the inhibitor: PRAK” value at PRAK is 93. Besides, the “activity remaining in the presence of the inhibitor: MST3” value at MST3 was found to be 99. Also, the “activity remaining in the presence of the inhibitor: PINK” value at PINK came to 107. Besides, the “number of other kinases inhibited by more than 80%” value in the assay on panel of 139 kinases amounted to 4. At TTBK2, the “activity remaining in the presence of the inhibitor: TTBK2” value was 94. Moreover, on ERK1, the “activity remaining in the presence of the inhibitor: ERK1” value came to 94. Moreover, the “activity remaining in the presence of the inhibitor: MKK2” value on MKK2 is on record as 93. Also, at MNK2, the “activity remaining in the presence of the inhibitor: MNK2” value turned out to be 70. Further, the “activity remaining in the presence of the inhibitor: MST4” value at MST4 was 107. At MARK1, the “activity remaining in the presence of the inhibitor: MARK1” value is listed as 87. Besides, at TBK1, the “activity remaining in the presence of the inhibitor: TBK1” value is 78. At PIM1, the “activity remaining in the presence of the inhibitor: PIM1” value stood at 95. At ERK8, the “activity remaining in the presence of the inhibitor: ERK8” value amounted to 90. The “activity remaining in the presence of the inhibitor: BRSK2” value on BRSK2 is listed as 90. At EPH-B3, the “activity remaining in the presence of the inhibitor: EPH-B3” value is 77. At TAO1, the “activity remaining in the presence of the inhibitor: TAO1” value was found to be 99. Moreover, the “activity remaining in the presence of the inhibitor: PDK1” value at PDK1 is listed as 101.
As for `C=CC(=O)N1C[C@H](Nc2ncnc3[nH]ccc23)CC[C@@H]1C` [PF-06651600, 1-((2S,5R)-5-((7H-Pyrrolo[2,3-d]pyrimidin-4-yl)amino)-2-methylpiperidin-1-yl)prop-2-en-1-one, reference compound], the “inhibition of IFNβ induced STAT1 phosphorylation” value in [1] was “did not block”.
As to `C=CC(=O)Nc1cccc(CNc2nc(Nc3ccc(N4CCOCC4)cc3)ncc2Cl)c1` [TL8-52], the “activity remaining in the presence of the inhibitor: FGF-R1” value at FGF-R1 was determined as 49. Also, the “activity remaining in the presence of the inhibitor: CK1γ2” value at CK1γ2 was 96. For the same molecule, on HIPK3, the “activity remaining in the presence of the inhibitor: HIPK3” value was 107. In addition, the “activity remaining in the presence of the inhibitor: IGF-1R” value at IGF-1R stood at 24. Moreover, the “activity remaining in the presence of the inhibitor: CHK2” value on CHK2 worked out at 75. Also, on PRAK, the “activity remaining in the presence of the inhibitor: PRAK” value turned out to be 113. Moreover, the “activity remaining in the presence of the inhibitor: MST3” value on MST3 amounted to 97. Further, on PINK, the “activity remaining in the presence of the inhibitor: PINK” value was determined as 110. In addition, the “number of other kinases inhibited by more than 80%” value in the assay on panel of 139 kinases is listed as 8. Besides, on TTBK2, the “activity remaining in the presence of the inhibitor: TTBK2” value stood at 106. Moreover, on ERK1, the “activity remaining in the presence of the inhibitor: ERK1” value stood at 94. In addition, the “activity remaining in the presence of the inhibitor: MKK2” value on MKK2 worked out at 63. Moreover, the “activity remaining in the presence of the inhibitor: MNK2” value on MNK2 stood at 66. Moreover, the “activity remaining in the presence of the inhibitor: MST4” value at MST4 was 96. The “inhibition of IFNβ induced STAT1 phosphorylation” value in assay [1] is “Some inhibition”. For the same molecule, on MARK1, the “activity remaining in the presence of the inhibitor: MARK1” value worked out at 44. Besides, the “activity remaining in the presence of the inhibitor: TBK1” value at TBK1 is listed as 11. For the same molecule, the “activity remaining in the presence of the inhibitor: PIM1” value on PIM1 is listed as 111. Also, the “activity remaining in the presence of the inhibitor: ERK8” value on ERK8 is listed as 65. Further, at BRSK2, the “activity remaining in the presence of the inhibitor: BRSK2” value is reported as 87. At EPH-B3, the “activity remaining in the presence of the inhibitor: EPH-B3” value was 73. The “activity remaining in the presence of the inhibitor: TAO1” value on TAO1 worked out at 91. The “activity remaining in the presence of the inhibitor: PDK1” value at PDK1 is reported as 86.
